In patent publication US20230144211A1, “ANTIFOLATE LINKER-DRUGS AND ANTIBODY-DRUG CONJUGATES” (Byondis B.V., priority 2020, published 2023):
Blank lines part the entries; values can stand above or below the compound they belong to.

Columns and labels:
[1] = tested on: SK-BR-3 cells; assay: In vitro cell viability assay (CellTiter-Glo, 6 days); format: cell-based, human; conditions: Homo sapiens
Description: (§1) FaDu, BxPC-3, HeLa, MV4-11, and RAJI cell lines were obtained from Deutsche Sammlung von Mikroorganismen und Zellkulturen (Leipzig, Germany). Jurkat NucLight Red cells were obtained from Essen BioScience Inc. (Ann Arbor, Mich., USA). SK-BR-3 and SK-OV-3 cells were cultured in McCoys 5A medium (Lonza; Walkersville, Md., USA) supplemented with 10% v/w Fetal Bovine Serum (FBS), Heat-inactivated (HI) (Gibco-Life Technologies; Carlsbad, Calif.) and 80 U/mL Pen/Strep (Gibco-Life Technologies), at 37° C. in a humidified incubator under 5% CO2 atmosphere. SW-620 cells were similarly maintained in RPMI 1640 medium (Lonza), containing 10% v/w FBS HI and 80 U/mL Pen/Strep. A-549 cells were similarly maintained in F-12K Nutrient Mixture (1×) (Gibco-Life Technologies) media supplemented with 80 U/mL Pen/Strep and 5% v/w FBS, which was Qualified (Q) (Gibco-Life Technologies). BT-474 and AU-565 cells were similarly maintained in RPMI 1640 medium (Lonza), containing 10% v/w FBS, which was Qualified (Q) (Gibco-Life Technologies), and 80 U/mL Pen/Strep. […] Jurkat NucLight Red cells were similarly maintained in RPMI 1640 medium (Lonza), containing 10% v/w FBS HI, 80 U/mL Pen/Strep and 0.5 μg/mL Puromycin (Gibco-Life Technologies). FaDu cells were cultured in EMEM medium (Lonza) supplemented with 10% v/w FBS HI (Gibco-Life Technologies), 1× GlutaMAX (Gibco-Life Technologies), and 80 U/mL Pen/Strep (Gibco-Life Technologies), at 37° C. in a humidified incubator under 5% CO2 atmosphere.
(§2) After an overnight incubation, 10 serial log 10 dilutions of the free drugs were made in DMSO (Sigma-Aldrich). These free drug dose-response curves were 10-times further diluted in complete growth medium. For the ADCs according to the invention 10 serial log 10 dilutions were made in complete growth medium. 10 μL of a composition comprising a free drug or an ADC according to the invention was added to the assay plate (final DMSO content for free drugs was 1%). […] […] Percentage cell survival was calculated by dividing the measured luminescence for each free drug or ADC according to the concentration with the average mean of untreated cells (1% or 0.1% DMSO control (for free drugs) or 100% complete growth medium (for ADCs)) multiplied by 100.
(§3) Curves were fitted by non-linear regression using the sigmoidal dose-response equation with variable slope (four parameters) using curve-fitting software (GraphPad Prism, version 9.4.0 for Windows, GraphPad, San Diego, Calif. or Electronic Laboratory Notebook (ELN) add-in BioAssay, version 19.1.0.0218, Perkin Elmer, Waltham, Mass.). Relative IC50 values were calculated as the concentration that gives a response halfway between bottom and top of the curve, when using a 4-parameter logistic fit. Data were reported as mean IC50 value of at least one experiment performed in duplicate.

[2] = tested on: BT-474 cells; assay: as above; format: cell-based; conditions: Homo sapiens, free antifolate drugs, Table 1a, # no full dose-response curve
Description: as §1, §2, §3

[3] = tested on: A-549 cells; assay: as above; format: cell-based; conditions: Homo sapiens, A549; free antifolate drugs, Table 1a; $ steep hillslope
Description: (§4) Human tumor cell lines SK-BR-3, SW-620, A-549, BT-474, Jurkat Clone E6-1, AU-565, and SK-OV-3 were obtained from American Type Culture Collection (Rockville, Md., USA). FaDu, BxPC-3, HeLa, MV4-11, and RAJI cell lines were obtained from Deutsche Sammlung von Mikroorganismen und Zellkulturen (Leipzig, Germany). Jurkat NucLight Red cells were obtained from Essen BioScience Inc. (Ann Arbor, Mich., USA). SK-BR-3 and SK-OV-3 cells were cultured in McCoys 5A medium (Lonza; Walkersville, Md., USA) supplemented with 10% v/w Fetal Bovine Serum (FBS), Heat-inactivated (HI) (Gibco-Life Technologies; Carlsbad, Calif.) and 80 U/mL Pen/Strep (Gibco-Life Technologies), at 37° C. in a humidified incubator under 5% CO2 atmosphere. SW-620 cells were similarly maintained in RPMI 1640 medium (Lonza), containing 10% v/w FBS HI and 80 U/mL Pen/Strep. A-549 cells were similarly maintained in F-12K Nutrient Mixture (1×) (Gibco-Life Technologies) media supplemented with 80 U/mL Pen/Strep and 5% v/w FBS, which was Qualified (Q) (Gibco-Life Technologies). BT-474 and AU-565 cells were similarly maintained in RPMI 1640 medium (Lonza), containing 10% v/w FBS, which was Qualified (Q) (Gibco-Life Technologies), and 80 U/mL Pen/Strep. Jurkat Clone E6-1, BxPC-3, HeLa, MV4-11, and RAJI cells were similarly maintained in RPMI 1640 medium (Lonza), containing 10% v/w FBS HI and 80 U/mL Pen/Strep. Jurkat NucLight Red cells were similarly maintained in RPMI 1640 medium (Lonza), containing 10% v/w FBS HI, 80 U/mL Pen/Strep and 0.5 μg/mL Puromycin (Gibco-Life Technologies). FaDu cells were cultured in EMEM medium (Lonza) supplemented with 10% v/w FBS HI (Gibco-Life Technologies), 1× GlutaMAX (Gibco-Life Technologies), and 80 U/mL Pen/Strep (Gibco-Life Technologies), at 37° C. in a humidified incubator under 5% CO2 atmosphere.
(§5) Cells in complete growth medium were plated in 96-well plates (90 μL/well) and incubated at 37° C., 5% CO2 at the following cell densities: 6500 SK-BR-3, 4000 SW-620, 2500 A-549, 10000 BT-474, 3000 Jurkat Clone E6-1, 5000 AU-565, 1250 FaDu, 1250 BxPC-3, 1000 HeLa, 7500 MV4-11, 1000 RAJI, 3000 Jurkat NucLight Red, and 4000 SK-OV-3 cells per well. After an overnight incubation, 10 serial log 10 dilutions of the free drugs were made in DMSO (Sigma-Aldrich). These free drug dose-response curves were 10-times further diluted in complete growth medium. For the ADCs according to the invention 10 serial log 10 dilutions were made in complete growth medium. 10 μL of a composition comprising a free drug or an ADC according to the invention was added to the assay plate (final DMSO content for free drugs was 1%). […] Cell viability was assessed after 6 days using a luminescent assay kit (CellTiter-Glo™ (CTG), Promega Corporation) according to the manufacturer's instructions. Percentage cell survival was calculated by dividing the measured luminescence for each free drug or ADC according to the concentration with the average mean of untreated cells (1% or 0.1% DMSO control (for free drugs) or 100% complete growth medium (for ADCs)) multiplied by 100.
as §3

[4] = tested on: Human tumor cell lines; assay: In vitro cell viability assays, free antifolate drugs, overall comparison; format: cell-based; conditions: compared with talotrexin or parent compound
Description: as §4, §5, §3

[5] = tested on: BxPC-3 cells; assay: In vitro cell viability assay (CellTiter-Glo, 6 days); format: cell-based; conditions: Homo sapiens, free antifolate drugs, Table 1d
Description: as §1, §2, §3

[6] = tested on: FaDu cells; assay: as above; format: cell-based; conditions: Homo sapiens, free antifolate drugs, Table 1d
Description: as §1, §2, §3

[7] = tested on: Jurkat NucLight Red cells; assay: as above; format: cell-based, human; conditions: Homo sapiens, Jurkat, free antifolate drugs
Description: as §1
(§6) After an overnight incubation, 10 serial log 10 dilutions of the free drugs were made in DMSO (Sigma-Aldrich). These free drug dose-response curves were 10-times further diluted in complete growth medium. For the ADCs according to the invention 10 serial log 10 dilutions were made in complete growth medium. 10 μL of a composition comprising a free drug or an ADC according to the invention was added to the assay plate (final DMSO content for free drugs was 1%). […] Cell viability was assessed after 6 days using a luminescent assay kit (CellTiter-Glo™ (CTG), Promega Corporation) according to the manufacturer's instructions. Percentage cell survival was calculated by dividing the measured luminescence for each free drug or ADC according to the concentration with the average mean of untreated cells (1% or 0.1% DMSO control (for free drugs) or 100% complete growth medium (for ADCs)) multiplied by 100.
as §3

[8] = tested on: SK-OV-3 cells; assay: as above; format: cell-based; conditions: Homo sapiens, free antifolate drugs, Table 1a
Description: as §1, §6, §3

[9] = tested on: AU-565 cells; assay: as above; format: cell-based, human; conditions: Homo sapiens, AU565, free antifolate drugs
Description: as §1, §2, §3

[10] = tested on: RAJI cells; assay: as above; format: cell-based; conditions: Homo sapiens, free antifolate drugs, Table 1d
Description: as §4, §5, §3

[11] = tested on: HeLa cells; assay: as above; format: cell-based; conditions: Homo sapiens, free antifolate drugs, Table 1d
Description: as §4, §5, §3

[12] = tested on: MV4-11 cells; assay: as above; format: cell-based; conditions: Homo sapiens, free antifolate drugs, Table 1d
Description: as §4, §5, §3

[13] = tested on: SW-620 cells; assay: as above; format: cell-based; conditions: Homo sapiens, free antifolate drugs, Table 1a
Description: as §1, §6, §3

[14] = SK-BR-3, free antifolate drugs, Table 1a
[15] = SK-BR-3, 24 h, free antifolate drugs, Table 1d

IC50 [1, 14]: 3.4 nM
IC50 [2]: 8.1 nM
IC50 [3]: ~10 nM
Structure (SMILES): Nc1ccc(C(=O)NCCC[C@H](NC(=O)c2ccc(CCc3ccc4nc(N)nc(N)c4c3)cc2)C(=O)O)cc1 [XJ4, (S)-5-(4-Aminobenzamido)-2-(4-(2-(2,4-diaminoquinazolin-6-yl)ethyl)benzamido)pentanoic acid]
antifolate activity, comparison in words [4]: less active than talotrexin

IC50 [1, 14]: 2.4 nM
IC50 [2]: 7.5 nM
IC50 [3]: 4 nM
Structure (SMILES): Nc1ccc(C(=O)NCCC[C@H](NC(=O)c2ccc(NCc3cnc4nc(N)nc(N)c4n3)cc2)C(=O)O)c(S(=O)(=O)O)c1 [XX37, (S)-5-(4-Amino-2-sulfobenzamido)-2-(4-(((2,4-diaminopteridin-6-yl)methyl)amino)benzamido) pentanoic acid]

IC50 [1, 15]: 0.9 nM
IC50 [5]: 0.92 nM
IC50 ([7]; 24 h, Table 1d): 0.87 nM
Structure (SMILES): Nc1ccc(C(=O)NCCC[C@H](NC(=O)c2ccc(CCc3ccc4nc(N)nc(N)c4c3F)cc2)C(=O)O)c(-c2nnn[nH]2)c1 [XG2, (S)-5-(4-Amino-2-(1H-tetrazol-5-yl)benzamido)-2-(4-(2-(2,4-diamino-5-fluoroquinazolin-6-yl)ethyl)benzamido)pentanoic acid]
IC50 [6]: 0.31 nM

IC50 [1, 14]: ~14 nM
IC50 [2]: ~100 nM
IC50 [8]: > 100 nM
Structure (SMILES): N#Cc1cc(N)ccc1-c1cn(CCC[C@H](NC(=O)c2ccc(NCc3cnc4nc(N)nc(N)c4n3)cc2)C(=O)O)nn1 [XX47, (S)-5-(4-(4-Amino-2-cyanophenyl)-1H-1,2,3-triazol-1-yl)-2-(4-(((2,4-diaminopteridin-6-yl)methyl)amino)benzamido)pentanoic acid]

IC50 [1, 15]: 0.63 nM
IC50 ([1]; SK-BR-3, free antifolate drugs, Table 1c): 0.44 nM
IC50 [5]: 0.71 nM
IC50 [10]: 0.6 nM
IC50 [11]: 0.11 nM
IC50 [12]: 0.62 nM
IC50 ([7]; 24 h, Table 1d): 0.79 nM
IC50 ([7]; Table 1c): 0.6 nM
Structure (SMILES): Nc1ccc(C(=O)NCCC[C@H](NC(=O)c2ccc(CCc3ccc4nc(N)nc(N)c4c3Cl)cc2)C(=O)O)c(-c2nnn[nH]2)c1 [XT123, (S)-5-(4-amino-2-(1H-tetrazol-5-yl)benzamido)-2-(4-(2-(2,4-diamino-5-chloroquinazolin-6-yl)ethyl)benzamido)pentanoic acid]
IC50 ([9]; Table 1c): 0.35 nM
IC50 [6]: 0.19 nM

IC50 [1, 14]: 6.5 nM
IC50 [13]: 2.8 nM
IC50 [3]: 29 nM
Structure (SMILES): Nc1ccc(C(=O)NCCC[C@H](NC(=O)c2ccc(CCc3cnc4nc(N)nc(N)c4n3)cc2)C(=O)O)cc1 [XX7, (S)-5-(4-Aminobenzamido)-2-(4-(2-(2,4-diaminopteridin-6-yl)ethyl)benzamido) pentanoic acid]
antifolate activity, comparison in words [4]: less active than talotrexin

IC50 [1, 14]: 1.3 nM
IC50 ([1]; SK-BR-3, free antifolate drugs, Table 1b, # no full dose-response curve): 1.03 nM
IC50 [2]: 4.3 nM
IC50 [3]: ~2.5 nM
IC50 ([7]; Table 1b): 1.4 nM
Structure (SMILES): Nc1ccc(C(=O)NCCC[C@H](NC(=O)c2ccc(NCc3cnc4nc(N)nc(N)c4n3)cc2)C(=O)O)c(-c2nn[nH]n2)c1 [XX35, (S)-5-(4-Amino-2-(2H-tetrazol-5-yl)benzamido)-2-(4-(((2,4-diaminopteridin-6-yl)methyl)amino)benzamido)pentanoic acid]
IC50 ([9]; Table 1b): 0.62 nM

IC50 [1, 14]: 16 nM
IC50 [13]: 7.2 nM
IC50 [3]: 76 nM
Structure (SMILES): [N-]=[N+]=Nc1ccc(C(=O)NCCC[C@H](NC(=O)c2ccc(CCc3cnc4nc(N)nc(N)c4n3)cc2)C(=O)O)cc1 [XX5, (S)-5-(4-Azidobenzamido)-2-(4-(2-(2,4-diaminopteridin-6-yl)ethyl)benzamido) pentanoic acid]
antifolate activity, comparison in words [4]: less active than talotrexin
